Data taken from patent publication US8969332B2, “Aryloxy dihalopropenyl ether compounds and uses thereof” (Sinochem Corporation, priority 2011, dated 2015).

How the values were obtained:
armyworm = experiment: Insecticidal activity against armyworm in greenhouse (airbrush spraying of corn leaf discs); assay type: in vivo; conditions: Mythimna separata, foliar, 72 h, parallel determination
Procedure: (§1) Compounds were dissolved in mixed solvent (acetone:methanol=1:1), and diluted to required concentration with water containing 0.1% of tweed 80.
(§2) The method of spraying by airbrush: The corn leaves were made into plates of 2 cm diameter by use of punch. A test solution (0.5 ml) was sprayed by airbrush at the pressure of 0.7 kg/cm^2 to both sides of every plate. 10 Second instar larvae were put into the Petri-dishes after the leaf disc air-dried and 3 replicates were set thr each treatment. Then the insects were maintained in observation room (25° C., 60˜70% R.H.). Scores were conducted and mortalities were calculated after 72 h.

beet armyworm = experiment: Field trial against beet armyworm on cabbage; assay type: in vivo, Laphygma exigua
Procedure: The trial was carried out in rain shelter area of experimental field of Wuhan vegetable research institute, the test crop is cabbage (variety: Jingfeng NO. 1). The dosage of the invention compound 1 (Example 11, 10% EC, same as below) are 75, 105, 150 g a.i./hm^2. and the comparative agent pyridalyl (10% EC, commercially available, same as below) is 105 g a.i./hm^2. The agent was applied on 9 Oct. 2011. The application tool is Linong 16HD-400 type backpack spray. Evenly spraying to whole cabbage which is in rosette stage was conducted. Beet armyworm is mainly larvae. The plot area is 25 m^2 and 4 replicates and randomized block arrangement were set. The amount of spray liquid is 750 L/hm^2. It was sunny and there was no wind, with the highest temperature of 28° C. and the lowest of 15° C. on the day of the application. Chosen 10 plants from each plot and scored the larvae at different instars at fixing time. The base number was investigated before treatment. The number of living larvae was counted after 1 day, 3 days, 7 days and 14 days respectively after application and control efficacy was calculated.
(§3) Calculation Method: Decrease rate of insects (%)=(the number of insects before application−the number of insects after application) the number of insects before application×100 Control efficacy (%)=(decrease rate of insects in treated area decrease rate of insects in blank comparative area)/(100−decrease rate of insects in blank comparative area)×100

housefly = experiment: Insecticidal activity against housefly (diet incorporation test); assay type: in vivo; conditions: Musca domestica, 72 h, 3rd instar larvae, read-out: Mortality of housefly (%)
Procedure: Diet Incorporation Tests: the test compound was dissolved with 90% acetone to obtain the mother liquor after weigh accurately with an electronic balance. The required concentration solution was got by diluting to the mother liquor with a certain concentration milk powder solution according to the designed doses in the experiment. Then, the diluted concentration solution was evenly put into the petri dishes with diameter of 6 cm inside which filter paper was placed by using a transferring-liquid gun ([…], solution each petri dish). Finally the 3rd instars of larvae were put into petri dishes with 10 each petri dish, and 3 replicates were set for each treatment. Then the insects were maintained in observation room (25° C., 60˜70% R.H.). Scores were conducted and mortalities were calculated after 72 h.

[1] = tested on: cabbage butterfly (Pierisrapae Linne); experiment: Field trial against cabbage butterfly; assay type: in vivo
Procedure: as §3
The trial was carried out in a farmer's vegetable field in Xiangcheng District Suzhou City. The variety of the cabbage is Xinxia 50. The dosage of the compound 1 are 75, 105, 150 g a.i./hm^2 and the comparative agent pyridalyl is 105 g a.i./hm^2. The agent was applied on 26 May 2011. The application tool is Singaporean Linong HD-400 type backpack spray. Evenly spraying to whole cabbage which is at vegetative growth phase was conducted, Cabbage butterfly is at a peak time of 1-3 instars of larvae. The plot area is 15 m^2, 4 replicates and randomized block arrangement were set. The amount of spray liquid is 750 L/hm^2. It was from sunny to cloudy with the highest temperature of 22.6° C., and the lowest of 17.8° C. on the day of the application of the spray. Chosen 10 plants from each plot and scored the larvae at different instars at fixing time. The base number was investigated before treatment. The number of living larvae was counted after 1 day, 4 days, 7 days and 12 days respectively after application and control efficacy was calculated.
Calculation method: the same as Example 13.

diamond back moth [2] = experiment: Insecticidal activity against diamond back moth in greenhouse (airbrush spraying of cabbage leaf discs); assay type: in vivo; conditions: Plutella xylostella, foliar, 72 h, parallel determination, read-out: Mortality of diamond back moth (%)
Procedure: as §1
as §2, with “cabbage” for “corn”, “petri-dishes” for “Petri-dishes”, “for” for “thr”, “R.H.),” for “R.H.).”

diamond back moth [3] = experiment: Field trial against diamond back moth on cabbage; assay type: in vivo, Plutella xylostella
Procedure: as §3
The trial was carried out in the test filed of Shenyang Research Institute of Chemical industry Ltd. The trial crop is cabbage (Variety: Zhonggan NO 8.). The dosage of the compound 1 are 75, 105, 150 g a.i./hm^2 and comparative agent pyridalyl is 105 g a.i./hm^2. The agent was applied once on 13 Jun. 2011. The application tool is Shandongweishi WS-16P type backpack manual sprayer. Evenly spraying to whole cabbage which is in rosette stage was conducted. Diamond back moth is originated at the peak time. The plot area is 10 m^2, 3 replicates and randomized block arrangement were set. The amount of spray liquid is 750 L/hm^2. It was sunny with the highest temperature of 29° C., and the lowest of 17° C. on the day of the application of the spray. The methods of investigation and calculation are the same as Example 13.

[4] = 75 g a.i./hm^2, 10% EC, 1 day after treatment
[5] = 75 g a.i./hm^2, 10% EC, 3 days after treatment
[6] = 75 g a.i./hm^2, 10% EC, 7 days after treatment
[7] = 105 g a.i./hm^2, 10% EC, 1 day after treatment
[8] = 105 g a.i./hm^2, 10% EC, 3 days after treatment
[9] = 105 g a.i./hm^2, 10% EC, 7 days after treatment
[10] = 150 g a.i./hm^2, 10% EC, 1 day after treatment
[11] = 150 g a.i./hm^2, 10% EC, 3 days after treatment
[12] = 150 g a.i./hm^2, 10% EC, 7 days after treatment

FC(F)(F)c1ccc(Oc2ccc(OCCCOc3c(Cl)cc(OCC=C(Cl)Cl)cc3Cl)cc2)nc1 [Compound 1]
mortality at 10 µg/mL (armyworm; 10 mg/L): 100%
mortality at 100 µg/mL (armyworm; 100 mg/L): 100%
Control efficiency (%) (beet armyworm; [4]): 63.18%
Control efficiency (%) (beet armyworm; [5]): 86.14%
Control efficiency (%) (beet armyworm; [6]): 80.51%
Control efficiency (%) (beet armyworm; 75 g a.i./hm^2, 10% EC, 14 days after treatment): 73.51%
Control efficiency (%) (beet armyworm; [7]): 69.20%
Control efficiency (%) (beet armyworm; [8]): 92.30%
Control efficiency (%) (beet armyworm; [9]): 86.19%
Control efficiency (%) (beet armyworm; 105 g a.i./hm^2, 10% EC, 14 days after treatment): 83.69%
Control efficiency (%) (beet armyworm; [10]): 71.17%
Control efficiency (%) (beet armyworm; [11]): 94.09%
Control efficiency (%) (beet armyworm; [12]): 90.45%
Control efficiency (%) (beet armyworm; 150 g a.i./hm^2, 10% EC, 14 days after treatment): 88.42%
mortality at 10 µg/mL (housefly; 10 mg/L): 66.7%
mortality at 20 µg/mL (housefly; 20 mg/L): 100%
Control efficiency (%) [1, 4]: 40.4%
Control efficiency (%) ([1]; 75 g a.i./hm^2, 10% EC, 4 day after treatment): 84.1%
Control efficiency (%) ([1]; 75 g a.i./hm^2, 10% EC, 7 day after treatment): 86.7%
Control efficiency (%) ([1]; 75 g a.i./hm^2, 10% EC, 12 days after treatment): 81.2%
Control efficiency (%) [1, 7]: 44.0%
Control efficiency (%) ([1]; 105 g a.i./hm^2, 10% EC, 4 day after treatment): 87.9%
Control efficiency (%) ([1]; 105 g a.i./hm^2, 10% EC, 7 day after treatment): 92.6%
Control efficiency (%) ([1]; 105 g a.i./hm^2, 10% EC, 12 days after treatment): 85.0%
Control efficiency (%) [1, 10]: 45.2%
Control efficiency (%) ([1]; 150 g a.i./hm^2, 10% EC, 4 day after treatment): 89.6%
Control efficiency (%) ([1]; 150 g a.i./hm^2, 10% EC, 7 day after treatment): 92.8%
Control efficiency (%) ([1]; 150 g a.i./hm^2, 10% EC, 12 days after treatment): 85.4%
mortality at 6.25 µg/mL (diamond back moth [2]; 6.25 mg/L): 100%
mortality at 25 µg/mL (diamond back moth [2]; 25 mg/L): 100%
mortality at 50 µg/mL (diamond back moth [2]; 50 mg/L): 100%
Control efficacy (%) (diamond back moth [3]; [4]): 86.0%
Control efficacy (%) (diamond back moth [3]; [5]): 98.7%
Control efficacy (%) (diamond back moth [3]; [6]): 97.6%
Control efficacy (%) (diamond back moth [3]; [7]): 93.4%
Control efficacy (%) (diamond back moth [3]; [8]): 97.0%
Control efficacy (%) (diamond back moth [3]; [9]): 97.8%
Control efficacy (%) (diamond back moth [3]; [10]): 90.4%
Control efficacy (%) (diamond back moth [3]; [11]): 97.9%
Control efficacy (%) (diamond back moth [3]; [12]): 97.9%
